# In PubChem BioAssay (NCI):
# Several values for one entry are separate records, joined by “and”; a condition that tells them apart may be missing. Identical values can stand only once.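 Step 1: Grow cells in 96-well plates. Step 2: Expose to compound for 48 hours at 5 concentrations. Step 3: Interpolate endpoints linearly; if unreached, use highest concentration. GI50 = concentration required for 50% inhibition of growth. TGI marks complete inhibition of growth.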
# Assays:
# Assay in all cases: inhibition of tumour cell growth, NCI panel, 48 h
# 786-0 renal = tested on: 786-0 renal
# DMS 273 small cell lung = tested on: DMS 273 small cell lung
# HL-60(TB) leukemia = tested on: HL-60(TB) leukemia
# HT29 colon = tested on: HT29 colon
# KM20L2 colon = tested on: KM20L2 colon
# NCI-H226 lung = tested on: NCI-H226 lung
# OVCAR-5 ovarian = tested on: OVCAR-5 ovarian
# SF-539 CNS = tested on: SF-539 CNS
# SR leukemia = tested on: SR leukemia
# UACC-257 melanoma = tested on: UACC-257 melanoma
Compound,TGI (786-0 renal),TGI (DMS 273 small cell lung),TGI (HL-60(TB) leukemia),TGI (HT29 colon),TGI (KM20L2 colon),TGI (NCI-H226 lung),TGI (OVCAR-5 ovarian),TGI (SF-539 CNS),TGI (SR leukemia),TGI (UACC-257 melanoma),GI50 (HL-60(TB) leukemia),GI50 (HT29 colon),GI50 (786-0 renal),GI50 (DMS 273 small cell lung),GI50 (KM20L2 colon),GI50 (NCI-H226 lung),GI50 (OVCAR-5 ovarian),GI50 (SF-539 CNS),GI50 (SR leukemia),GI50 (UACC-257 melanoma)
Cc1c(Cl)ccc2c1NC(=O)C2(O)C(C(=O)c1ccccc1)c1ccccc1 (configuration not stated),> 100 µM,> 100 µM,39.5 µM,> 100 µM,> 100 µM,> 100 µM,> 100 µM,> 100 µM,60.2 µM,89 µM,–,–,–,–,–,–,–,–,–,–
Cc1ccc(NC(=O)C(=O)C2C(=O)N(c3ccccc3)N=C2N)cc1C (configuration not stated),> 100 µM,> 100 µM,> 100 µM,> 100 µM,> 100 µM,> 100 µM,> 100 µM,> 100 µM,> 100 µM,> 100 µM,–,–,–,–,–,–,–,–,–,–
Cc1[nH]c2ccccc2c1C1Cc2ccccc2N1C(=O)/C=C/C=C/c1ccccc1 (configuration not stated),> 100 µM,> 100 µM,> 100 µM,> 100 µM,> 100 µM,> 100 µM,> 100 µM,> 100 µM,> 100 µM,> 100 µM,–,–,–,–,–,–,–,–,–,–
COc1cc(/C=C2/C(=O)N(C(=O)OC(C)C)C(Cc3cc(OC)c(OC)c(C)c3OC)C(=O)N2Cc2ccccc2)c(OC)c(C)c1OC (configuration not stated),> 100 µM,> 100 µM,> 100 µM,> 100 µM,> 100 µM,30 µM,> 100 µM,> 100 µM,51.1 µM,> 100 µM,–,–,–,–,–,–,–,–,–,–
COc1ccc(C(=O)OCC2OC(n3cnc4c(=S)nc[nH]c43)C(OC(=O)c3ccc(OC)cc3)C2OC(=O)c2ccc(OC)cc2)cc1 (configuration not stated),> 100 µM,> 100 µM,> 100 µM,> 100 µM,> 100 µM,> 100 µM,> 100 µM,> 100 µM,> 100 µM,> 100 µM,–,–,–,–,–,–,–,–,–,–
O=C(O)C(CP(=O)(O)O)=C(Cl)Cl,> 100 µM,> 100 µM,> 100 µM,> 100 µM,> 100 µM,> 100 µM,> 100 µM,> 100 µM,> 100 µM,> 100 µM,–,–,–,–,–,–,–,–,–,–
COc1ccc2c(=O)c(C)c(-c3ccccc3)oc2c1CN(C)C,> 100 µM,> 100 µM,> 100 µM,> 100 µM,> 100 µM,> 100 µM,> 100 µM,> 100 µM,> 100 µM,> 100 µM,> 100 µM and 34.6 µM,> 100 µM and 30.6 µM,–,–,–,–,–,–,–,–
CCC[CH2][Sn]1([CH2]CCC)[O]C(=O)c2cc(I)cc(I)c2[O]1,2.8 µM,2.82 µM,2.22 µM,4.21 µM,3.39 µM,3.29 µM,3.48 µM,2.44 µM,1.7 µM,2.55 µM,0.4 µM,2.03 µM,1470 nM,1280 nM,1840 nM,1750 nM,1990 nM,1160 nM,279 nM,1240 nM
COc1cc(/C=C2\[C@H]3c4c(c(OC)c(C)c(OC)c4OC)C[C@@H](C(=O)N2Cc2ccccc2)N3C(=O)OCC(C)C)c(OC)c(C)c1OC,> 100 µM,> 100 µM,> 100 µM,> 100 µM,> 100 µM,40.9 µM,> 100 µM,> 100 µM,> 100 µM,> 100 µM,–,–,–,–,–,–,–,–,–,–
